In patent publication US12637414B2, “Arylamides and methods of use thereof” (Genzyme Corporation, priority 2019, dated 2026):

Target: T1, human Cystic Fibrosis Transmembrane Conductance Regulator (CFTR) harboring the ΔF508 mutation (Homo sapiens, UniProt P13569, DEL508-508)
T1 construct: expressed in transfected cells; host or cells: H441 carcinoma line (G418 selection)
Assay: H441 cell Emax and EC50: HRP-tagged ΔF508-CFTR cell surface luminescence assay
Type: cell-based
Conditions: H441 cells expressing ΔF508-CFTR-HRP, 27° C., two nights; for EC50: 15-point dose-response, top 24.5 μM; for Emax: NCI-H441, % of maximum VX809 signal
From the text: Two cell lines were used, the H441 carcinoma line and the CFHBE41o-(41o-) human bronchial epithelial line. Both cell lines expressed human Cystic Fibrosis Transmembrane Conductance Regulator (CFTR) harboring the ΔF508 mutation and with an in-frame fusion in CFTR extracellular loop 4 of Horse Radish Peroxidase (HRP) under control of the CMV promoter. In the presence of the HRP tag, ΔF508-CFTR transported to the cell surface was detectable upon addition of an HRP substrate (Luminata Forte). Both cell types were cultivated at 37° C. with CO2.
For both cell types, the medium was changed every other day unless the culture was at low % confluence. Cells were used for the assays at ˜75% confluence.
To a polypropylene (PP) 384-well plate, 15 μls DMSO was added to all wells in columns 1-22 and 24 (low Control). 15 μls of 260 μM VX809 (Lumacaftor), Selleckchem S1565, was added to column 23 wells (high Control). 15 μls of 10 mM test compound or VX809 (control) were added to wells of row A. Serial dilutions of Row A compound were performed 2×15 μls in rows A through O (15-point).
A PP, 384-well plate containing the appropriate cell culture medium was prepared for each assay plate with 100 μls per well. For the doxycycline-induced 41o-cells, doxycycline for both the assay plate and the medium dilution plate was added at 0.0005 mg/ml to the medium.
Both cell lines were plated for the assay at 30 uls per 384-well at 3.4×10^e5 cells per ml (˜10K cells/well). H441 cells were plated on opaque, white, Corning plate 3704. 41o-cells were plated on collagen-coated opaque, white, Corning plate 356665. For 41o-cells, doxycycline was added to the medium.
Using FX (Beckman) protocol, 10 uls diluted compound or medium was added per well to the Assay Plate as: 2 μls DMSO Dilution plate well is diluted in 100 uls of the Medium Dilution Plate well, mixed, and 10 uls is transferred to the Assay Plate.
The final assay dilution series is 24.5, 12.3, 6.1, 3.1, 1.5, 0.8, 0.4, 0.2, 0.1, 0.05, 0.02, 0.01, 0.006, 0.003, 0.001 and 0 μM. The 41o-assay plates were incubated at 37° C. w/CO2, the H441 assay plates were incubated at 27° C. w/CO2, each overnight for two nights.
After being brought to room temperature, the assay plate liquid was removed. 30 μls of Luminata Forte (Millipore ELLUF0100) was added per well and incubated at room temperature for 10 min. The plates were then read on a Topcount, protocol LumiMatti (CPS, luminescence). The data was analyzed for % of maximum, maximum VX809 signal, and EC50 using Pearl and SPEED tools.

T1 sequence (P13569 with tags, fused parts or gaps DEL508-508): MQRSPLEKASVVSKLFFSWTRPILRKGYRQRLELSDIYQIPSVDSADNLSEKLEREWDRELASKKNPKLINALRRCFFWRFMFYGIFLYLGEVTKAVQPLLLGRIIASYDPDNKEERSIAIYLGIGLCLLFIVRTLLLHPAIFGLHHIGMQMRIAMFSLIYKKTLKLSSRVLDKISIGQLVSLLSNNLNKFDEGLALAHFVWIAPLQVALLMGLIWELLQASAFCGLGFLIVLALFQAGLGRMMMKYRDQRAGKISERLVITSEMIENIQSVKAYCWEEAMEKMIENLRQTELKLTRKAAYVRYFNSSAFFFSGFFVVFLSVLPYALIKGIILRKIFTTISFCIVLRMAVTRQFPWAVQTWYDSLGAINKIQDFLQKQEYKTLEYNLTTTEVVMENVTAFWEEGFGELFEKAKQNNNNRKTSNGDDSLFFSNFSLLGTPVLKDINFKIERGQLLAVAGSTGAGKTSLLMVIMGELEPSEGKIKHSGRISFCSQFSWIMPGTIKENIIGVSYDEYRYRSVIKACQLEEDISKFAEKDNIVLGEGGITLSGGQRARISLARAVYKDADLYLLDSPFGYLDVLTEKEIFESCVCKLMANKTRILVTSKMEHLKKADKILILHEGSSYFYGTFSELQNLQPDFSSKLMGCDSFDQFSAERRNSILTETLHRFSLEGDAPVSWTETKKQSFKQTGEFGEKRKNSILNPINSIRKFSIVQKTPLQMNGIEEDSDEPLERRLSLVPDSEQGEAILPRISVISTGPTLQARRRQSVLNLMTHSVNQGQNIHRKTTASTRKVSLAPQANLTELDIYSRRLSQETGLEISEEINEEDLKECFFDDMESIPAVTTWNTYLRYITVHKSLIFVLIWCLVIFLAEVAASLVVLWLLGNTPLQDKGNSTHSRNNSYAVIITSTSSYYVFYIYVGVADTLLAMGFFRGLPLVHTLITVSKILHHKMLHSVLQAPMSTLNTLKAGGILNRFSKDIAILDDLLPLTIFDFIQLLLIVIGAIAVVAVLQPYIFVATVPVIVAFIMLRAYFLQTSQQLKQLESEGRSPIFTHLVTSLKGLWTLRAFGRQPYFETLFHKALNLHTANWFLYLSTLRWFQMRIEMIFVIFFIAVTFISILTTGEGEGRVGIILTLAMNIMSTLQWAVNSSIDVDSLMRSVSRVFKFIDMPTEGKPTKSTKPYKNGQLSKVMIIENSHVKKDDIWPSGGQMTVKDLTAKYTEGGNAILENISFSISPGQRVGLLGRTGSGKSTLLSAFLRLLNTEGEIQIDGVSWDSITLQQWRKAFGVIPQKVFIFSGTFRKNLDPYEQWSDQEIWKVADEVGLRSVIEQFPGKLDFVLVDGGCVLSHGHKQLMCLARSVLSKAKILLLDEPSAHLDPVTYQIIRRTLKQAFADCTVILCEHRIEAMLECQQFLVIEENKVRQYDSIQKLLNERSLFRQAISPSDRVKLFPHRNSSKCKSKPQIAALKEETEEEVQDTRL

Structure (SMILES)	EC50 [nM]	Emax [%]
CCOC12CC3CC(C1)CC([C@H](NC(=O)c1ccc4ccccc4c1OCc1ccc(C(F)(F)F)cc1)C(=O)O)(C3)C2 [compound 27]	153	215
O=C(N[C@H](C(=O)O)C12CC3CC(CC(O)(C3)C1)C2)c1ccc2ccccc2c1OCC1CCCCC1 [compound 30]	1450	96.8
O=C(N[C@H](C(=O)O)C12CC3CC(CC(C3)C1)C2)c1ccc2cccnc2c1OCc1ccc(Cl)c(Cl)c1 [compound 31]	308	194
O=C(N[C@H](C(=O)O)C12CC3CC(CC(C3)C1)C2)c1sc2cc(Cl)ccc2c1OCc1ccc(C(F)(F)F)cc1 [compound 32]	396	105
O=C(N[C@H](C(=O)O)C12CC3CC(CC(O)(C3)C1)C2)c1ccc2cc(F)ccc2c1OCc1ccc(C(F)(F)F)cc1 [compound 33]	755	100
Cc1ccc2ccc(C(=O)N[C@H](C(=O)O)C34CC5CC(CC(C5)C3)C4)c(OCc3ccc(OC(F)(F)F)cc3)c2c1 [compound 34]	489	264
O=C(N[C@H](C(=O)O)C12CC3CC(CC(O)(C3)C1)C2)c1ccc2ccccc2c1OCc1ccc(OC(F)(F)F)cc1 [compound 35]	1130	141
C[C@@H](OC12CC3CC(C1)CC([C@H](NC(=O)c1ccc4cc(F)ccc4c1OCc1ccc(C(F)(F)F)cc1)C(=O)O)(C3)C2)C(=O)O [compound 36]		0.9
O=C(N[C@H](C(=O)O)C12CC3CC(CC(C3)C1)C2)c1ccc2cc(O)ccc2c1OCc1ccc(C(F)(F)F)cc1 [compound 37]	155	132
COc1ccc2c(OCc3ccc(C(F)(F)F)cc3)c(C(=O)N[C@H](C(=O)O)C34CC5CC(CC(C5)C3)C4)ccc2c1 [compound 38]	131	56.2
CS(=O)(=O)CCOC12CC3CC(C1)CC([C@H](NC(=O)c1ccc4cc(F)ccc4c1OCc1ccc(C(F)(F)F)cc1)C(=O)O)(C3)C2 [compound 39]	2160	102
O=C(N[C@H](C(=O)O)C12CC3CC(CC(C3)C1)C2)c1ccc2ccccc2c1OCc1ccc(C(F)(F)C(F)(F)F)cc1 [compound 40]	113	149
O=C(N[C@H](C(=O)O)C12CC3CC(CC(C3)C1)C2)c1ccc2cccnc2c1OCc1ccc(C(F)(F)F)cc1 [compound 41]	468	173
COCCOC12CC3CC(C1)CC([C@H](NC(=O)c1ccc4ccccc4c1OCc1ccc(C(F)(F)F)cc1)C(=O)O)(C3)C2 [compound 43]	267	128
O=C(N[C@H](C(=O)O)C12CC3CC(CC(C3)C1)C2)c1ccc2cc(F)ccc2c1OCC1CCCCC1 [compound 45]	939	142
O=C(N[C@H](C(=O)O)C12CC3CC(CC(O)(C3)C1)C2)c1ccc2cc(F)ccc2c1OCc1ccc(OC(F)(F)F)cc1 [compound 46]		3.8
O=C(N[C@H](C(=O)O)C12CC3CC(CC(C3)C1)C2)c1ccc2ccccc2c1OCc1ccc(S(F)(F)(F)(F)F)cc1 [compound 47]	449	148
O=C(N[C@H](C(=O)O)C12CC3CC(CC(C3)C1)C2)c1ccc2ccccc2c1OC[C@H]1CC[C@H](C(F)(F)F)CC1 [compound 48]	729	124
O=C(N[C@H](C(=O)O)C12CC3CC(CC(O)(C3)C1)C2)c1ccc2cc(F)ccc2c1OCc1ccc(S(F)(F)(F)(F)F)cc1 [compound 50]	2170	76.4
O=C(N[C@H](C(=O)O)C12CC3CC(CC(C3)C1)C2)c1ccc2cccnc2c1OCc1nc2ccccc2s1 [compound 51]	1600	206
O=C(N[C@H](C(=O)O)C12CC3CC(CC(C3)C1)C2)c1ccc2ccccc2c1OCC1CCCCC1 [compound 52]	903	171
O=C(N[C@H](C(=O)O)C12CC3CC(CC(O)(C3)C1)C2)c1ccc2ccccc2c1OCC1CCC(F)(F)CC1 [compound 53]	7220	74.1

Structure (SMILES)	EC50 [nM]	Emax [%]
O=C(N[C@H](C(=O)O)C12CC3CC(CC(Br)(C3)C1)C2)c1ccc2ccccc2c1OCc1ccc(C(F)(F)F)cc1 [compound 54]	153	147
O=C(N[C@H](C(=O)O)C12CC3CC(CC(C3)C1)C2)c1ccc2cc(F)ccc2c1OCc1ccc(Cl)c(Cl)c1 [compound 55]	196	150
O=C(N[C@H](C(=O)O)C12CC3CC(CC(C3)C1)C2)c1ccc2cc(F)ccc2c1OCc1ccc(S(F)(F)(F)(F)F)cc1 [compound 56]	236	89.7
O=C(N[C@H](C(=O)O)C12CC3CC(CC(C3)C1)C2)c1ccc2cc(F)ccc2c1OCc1ccc(SC(F)(F)F)cc1 [compound 57]	296	92.5
CS(=O)(=O)c1ccc(COc2c(C(=O)N[C@H](C(=O)O)C34CC5CC(CC(C5)C3)C4)ccc3ccccc23)cc1 [compound 58]	15800	30.1
CC12CC3(C)CC(C)(C1)CC([C@H](NC(=O)c1ccc4ccccc4c1OCc1ccc(C(F)(F)F)cc1)C(=O)O)(C2)C3 [compound 59]	291	257
O=C(N[C@H](C(=O)O)C12CC3CC(CC(O)(C3)C1)C2)c1ccc2cccnc2c1OCC1CCC(F)(F)CC1 [compound 60]	11600	73.1
O=C(N[C@H](C(=O)O)C12CC3CC(CC(C3)C1)C2)c1ccc2ccccc2c1OCc1ccc(S(=O)(=O)C(F)(F)F)cc1 [compound 61]	446	100
CC12CC3(C)CC(C)(C1)CC([C@H](NC(=O)c1ccc4cccnc4c1OCc1ccc(C(F)(F)F)cc1)C(=O)O)(C2)C3 [compound 62]	245	217
C=COc1ccc2c(OCc3ccc(C(F)(F)F)cc3)c(C(=O)N[C@H](C(=O)O)C34CC5CC(CC(C5)C3)C4)ccc2c1 [compound 63]	228	54.9
O=C(N[C@H](C(=O)O)C12CC3CC(CC(C3)C1)C2)c1ccc2ccccc2c1OCc1nc2ccccc2s1 [compound 65]	1320	198
CC(=O)COC12CC3CC(C1)CC([C@H](NC(=O)c1ccc4cc(F)ccc4c1OCc1ccc(C(F)(F)F)cc1)C(=O)O)(C3)C2 [compound 66]	1380	84.2
O=C(N[C@H](C(=O)O)C12CC3CC(CC(Br)(C3)C1)C2)c1ccc2cccnc2c1OCc1ccc(C(F)(F)F)cc1 [compound 67]	879	134
CC(C)OC(=O)[C@@H](NC(=O)c1ccc2cccnc2c1OCc1ccc(C(F)(F)F)cc1)C12CC3CC(CC(C3)C1)C2 [compound 69]	≥ 24500	28.9
O=C(N[C@H](C(=O)O)C12CC3CC(CC(C3)C1)C2)c1ccc2ccccc2c1OC[C@H]1CC[C@@H](C(F)(F)F)CC1 [compound 70]	1860	97.4
CC(C)C#CCOc1c(C(=O)N[C@H](C(=O)O)C23CC4CC(CC(C4)C2)C3)ccc2cc(F)ccc12 [compound 72]	11200	92.7
O=C(N[C@H](C(=O)O)C12CC3CC(CC(C3)C1)C2)c1ccc2ccccc2c1OCc1ccc([N+](=O)[O-])cc1 [compound 73]	1320	118
CC(C)OC(=O)[C@@H](NC(=O)c1ccc2ccccc2c1OCc1ccc(C(F)(F)F)cc1)C12CC3CC(CC(C3)C1)C2 [compound 74]		4
CC12CC3(C)CC(C)(C1)CC(C(NC(=O)c1ccc4ccccc4c1OCC1CCCCC1)C(=O)O)(C2)C3 (stereo not shown) [compound 75]	599	271
CC12CC3(C)CC(C)(C1)CC(C(NC(=O)c1ccc4ccccc4c1OCc1ccc(C(F)(F)C(F)(F)F)cc1)C(=O)O)(C2)C3 (stereo not shown) [compound 76]	212	196
O=C(N[C@H](C(=O)O)C12CC3CC(CC(C3)C1)C2)c1ccc2ccccc2c1OCc1ccc(OC(F)F)cc1 [compound 78]	≥ 24500	7.8
O=C(NC(C(=O)O)C12CC3CC(CC(O)(C3)C1)C2)c1ccc2ccccc2c1OCc1ccc(C(F)(F)F)cc1 (stereo not shown) [compound 79]	1030	137
